≈ marks a conversion by molar mass, not a printed value. Read-outs that look alike come from different tables or passages of the source.
Key:
HT-29 cells [1] = conditions: cited from earlier work
[2] = tested on: HT-29 human colon carcinoma cells; experiment: Sulforhodamine B (SRB) cell viability assay, HT-29; type: cell-based; conditions: for IC50: Homo sapiens, HT-29, 72 h; for Selectivity Index (SI): IC50 for normal cells CCD 841 CoN / IC50 for cancer cells HT-29
Description: (§1) Cell viability was quantified using the Sulforhodamine B assay described by Skehan et al.. Cells were plated with a density of 5 × 10^3 (HT-29) and 1 × 10^4 (CCD 841 CoN) cells/well and allowed to attach at 37 °C in an atmosphere with 5% CO2. After 24 h, the AMTs dissolved in DMSO were added to the cells (final concentrations of 10, 20, 30, and 50 µg/mL and less than 0.05% of DMSO) and the plates were incubated for 72 h. Then, the cells were fixed by adding 50 μL of TCA (50%) to each well and the plates were maintained for 1 h at 4 °C. The plates were washed five times with deionized water, air-dried, and stained for 30 min at room temperature with 100 μL of 0.4% (w/v) SRB prepared in 1% (v/v) acetic acid. The plates were rinsed quickly five times with 1% acetic acid to remove unbound dye, followed by air-drying. The bound dye was solubilized in 2 mM Tris base (100 μL/well) for 5 min. Optical densities were read on a microplate reader (Spectrophotometer LabsystemsMultiskan EX, λ 492 nm). Three independent assays were conducted, each one in duplicate. A standard curve was constructed for each experiment and used for converting the measured optical density values into numbers of viable cells/well. The inhibition rate was used to evaluate the cell viability and its algorithm was the following formula: ((ODcontrol − ODtreatment)/ODcontrol) × 100; OD, optical density. The OD492 for control cells was taken as 100% viability. The half maximal inhibitory concentration (IC50) was calculated. The selectivity index (SI) of each compound was calculated as IC50 of the compound against the CCD 841 CoN normal cell line/IC50 of the same compound against the HT-29 cancer cell line.

[3] = tested on: normal human colonic epithelial cells CCD 841 CoN; experiment: Sulforhodamine B (SRB) cell viability assay, CCD 841 CoN; type: cell-based; conditions: normal colon cells, 72 h of treatment, mean ± SE of three experiments, read-out: IC50 CCD841 CoN
Description: as §1

HT-29 colon cancer cells [4] = experiment: Annexin V-FITC/PI flow cytometry apoptosis induction assay; type: cell-based, human; conditions: 24 h; for necrosis (dead cells): 30 μg/mL
Description: Quantitative assessment of apoptosis was performed by flow cytometry using an Annexin V-FITC Apoptosis Detection Kit. Briefly, 1 × 10^6 HT-29 cells were seeded per well in six-well plates and incubated for 24 h, followed by the addition of the AMTs dissolved in DMSO (final concentrations of 10, 20, and 30 µg/mL for compounds 1, 2, 5, 6, 7, and 8, and 30, 60, and 90 µg/mL for compounds 3 and 4, and less than 0.05% DMSO) and incubation for 24 h. Curcumin (final concentrations of 50 and 75 μM) was used as positive control. The cells were then washed, harvested with trypsin, and centrifuged at 1500 rpm (5 min, 25 °C). The pellet was resuspended in 195 µL of 1 × Annexin buffer and then stained with 5 μL of Annexin V-FITC and 10 μL of PI for 10 min at room temperature, in the dark. To this mixture 200 μL of 1 × Annexin buffer was added before analysis using a Cytomics FC500 flow cytometer (Beckman Coulter, Indianapolis, IN, USA). Following a gating strategy, flow cytometry plots of size (FS) and complexity (SS) of the HT-29 cells were previously established for the elaboration of a measurement protocol. The normal healthy cells, early apoptosis, late apoptosis, and necrotic populations were represented by annexin V-negative/PI-negative population, annexin V-positive/PI-negative, annexin V-positive/PI-positive and annexin-negative/PI-positive cells, respectively. A total of 10,000 cellular events in each sample were analyzed using DML program.

HT-29 colon cancer cells [5] = experiment: Cell cycle analysis by flow cytometry (PI); type: cell-based, human; conditions: 24 h; 30 μg/mL of 1, 2, 5, 6, 7, 8 and 90 μg/mL of 3 and 4 (Figure 4B)
Description: HT-29 cells (1 × 10^6 cells/well) were seeded in six-well plates and incubated for 24 h, followed by treatment with AMTs dissolved in DMSO (final concentrations of 10, 20, and 30 µg/mL for compounds 1, 2, 5, 6, 7, and 8, and 30, 60, and 90 µg/mL for compounds 3 and 4, and always below 0.05% DMSO) and 24 h of additional incubation. Colchicine (final concentration of 0.2 μg/mL) was used as positive control. The cells were then washed, harvested with trypsin, and centrifuged at 1500 rpm (5 min, 25 °C). The resulting pellet was fixed with ice-cold 70% ethanol (1 mL/10^6 cells) and the samples were stored at −4°C overnight. After fixation, the cells were washed with PBS, stained with PBS containing 5 mg/mL of RNase A, and incubated for 48 h at 4 °C. Subsequently, 50 μL of 0.1 mg/mL of IP was added and incubated for 1 h at 4 °C. The relative DNA content per cell was analyzed using a Cytomics FC500 flow cytometer (Beckman Coulter, Indianapolis, IN, USA). The data acquisition was performed with the DML program and the analysis of the acquired data with the CXP Software (Beckman Coulter, Indianapolis, IN, USA).

HT-29 cells [6] = experiment: Wound migration assay; type: cell-based, human; conditions: 24 h, wound-healing; for inhibition at 10 µg/mL: Homo sapiens, HT-29, 10 μg/mL, read-out: inhibition of cell migration
Description: For cell migration assay, HT-29 cells were seeded in six-well culture plates and allowed to grow to 80%–90% confluence for the experiment. After aspirating the medium, similar sized wounds were performed in the monolayer cells using a sterile micropipette tip. Wounded monolayer cells were washed three times with PBS to remove cell debris and then replaced with complete McCoy’s medium. HT-29 cells were treated with the AMTs (10 µg/mL for compounds 1, 2, 5, 6, 7, and 8, and 30 µg/mL for compounds 3 and 4) and incubated for 24h. For the image analysis of the effect of each treatment on cell migration, the wounded area was photographed immediately after scratching and after 24 h. The level of cell migration was determined using NIH Image software (Image J 1.44g, Wayne Rasband, USA) and then expressed as a percentage of wound closure area using the equation: Migration rate (%) = [(wound area at 0 h − wound area at 24 h)/wound area at 0 h] × 100%.

p-ERK1/2 in HT-29 cells = experiment: Western blot of phosphorylated ERK1/2; type: cell-based, human; conditions: 24 h; 10 and 20 μg/mL
Description: (§2) Cells were cultured to 80% confluence at 37 °C. After 24 h of treatment with the compounds (10 and 20 µg/mL for compounds 1, 2, 5, 6, 7, and 8, and 30 and 60 µg/mL for compounds 3 and 4), HT-29 cells were rinsed twice with ice-cold PBS, and then lysed immediately in lysis buffer (250 mM NaCl, 50 mM Tris (pH 7.5), 0.5 mM EDTA, 5 mM EGTA, 8 mM MgCl2, 1 mM PMSF, 0.01 mg/mL pepstatin A, 0.01 mg/mL leupeptin, 0.01 mg/mL aprotinin, 1% Triton X-100). After centrifugation at 12,000 g for 3 min at 4°C to separate the cellular debris, the supernatant was collected and stored at −80°C until use. The protein concentrations were determined using Bio-Rad Protein Assay (BioRad, Richmond, CA, USA), according to the manufacturer’s instructions.
(§3) Equal protein content (50 μg) samples of cell lysates were separated on 10% SDS–polyacrylamide gel and transferred to polyvinylidene difluoride membranes (Hybond-P, Amershan Biosciences, Little Chalfont, UK). The membranes were blocked with 5% (w/v) non-fat dry milk in Tris-buffered saline containing 0.1% Tween-20 buffer (pH 7.4) (TBST) for 1 h at room temperature and incubated with agitation with specific antibodies: anti-pERK1/2 (Cell Signaling; 1:1000), anti-pJNK (Cell Signaling; 1:1000), anti-pAKT (Cell Signaling; 1:1000), anti-β-actin (Sigma-Aldrich; 1:500). Membranes were incubated overnight at 4°C with gentle shaking. The secondary antibody was a peroxidase-conjugated goat anti-mouse or -rabbit antibody (1:10,000; DakoCytomation, Carpinteria, CA, USA). After washing the membrane three times in TBST buffer (10 min), the signals were detected using an enhanced chemiluminescence light-detecting kit (Super-Signal West Pico Chemiluminescent Substrate, Pierce, IL, USA), according to the manufacturer’s instructions and exposed to an X-ray film (GE Healthcare Ltd., Amersham, UK). The protein band densities were analyzed and quantified with a Scientific Imaging Systems (Biophotonics ImageJ Analysis Software, National Institute of Mental Health, Bethesda, MD, USA). β-actin was used to confirm the equal loading and transfer of proteins.

p-JNK in HT-29 cells = experiment: Western blot of phosphorylated JNK; type: cell-based, human; conditions: 24 h; 10 and 20 μg/mL for 1, 2, 5, 6, 7, 8; 30 and 60 μg/mL for 3 and 4
Description: as §2, §3

p-AKT in HT-29 cells = experiment: Western blot of phosphorylated AKT; type: cell-based, human; conditions: 24 h; 10 and 20 μg/mL for 1, 2, 5, 6, 7, 8; 30 and 60 μg/mL for 3 and 4
Description: as §2, §3

[7] = colon cancer cells, 72 h of treatment, SRB, mean ± SE of three experiments

For zonaquinone acetate, the IC50 (HT-29 cells [1]; read-out: IC50 growth of HT-29 cells) is listed as 17.3 µM and the “IC50 growth of HT-29 cells” value (HT-29 cells [1]; value in brackets, converted from μM) is listed as 7.8 µg/mL.

For `COc1c(C)cc(O)cc1C/C=C(\C)CC(=O)/C=C(/C)CCCC(C)C(=O)/C=C/C(C)(C)O` (stereo not drawn) [Compound 5, 6-cis-amentadione-1′-methyl ether], the IC50 [2, 7] was 7.83 ± 0.05 µg/mL (≈ 17.1 µM), the “Selectivity Index (SI)” value [2] was 5.23 and the IC50 [3] was 41 ± 9.8 µg/mL (≈ 89.7 µM). For the same compound, the “necrosis (dead cells)” value (HT-29 colon cancer cells [4]) was 72.75%, the “accumulation of cells at the G2/M phase (cell cycle arrest, words)” value (shortened to “accumulation of cells at the G2/M phase”) (HT-29 colon cancer cells [5]) was “significant” and the inhibition at 10 µg/mL (HT-29 cells [6]) was 36.2%. The “p-ERK1/2 level vs control” value (p-ERK1/2 in HT-29 cells) was “significantly reduced”, the “phospho-JNK level vs control” value (p-JNK in HT-29 cells) was “decreased phosphorylation” and the “expression of p-AKT protein vs control” value (p-AKT in HT-29 cells) was “no significant reduction”.

For `COc1c(C)cc(O)cc1C/C=C(\C)CC(=O)/C=C(\C)CCCC(C)C(=O)/C=C/C(C)(C)O` (centres unmarked) [Compound 6, amentadione-1′-methyl ether], the IC50 [2, 7] was 10.7 ± 0.27 µg/mL (≈ 23.5 µM), the “Selectivity Index (SI)” value [2] was 4.51 and the IC50 [3] was 48.4 ± 3.84 µg/mL (≈ 106 µM). For the same compound, the “necrosis (dead cells)” value (HT-29 colon cancer cells [4]) was 59.55%, the “accumulation of cells at the G2/M phase” value (HT-29 colon cancer cells [5]) was “not significant” and the inhibition at 10 µg/mL (HT-29 cells [6]) was 45.3%. The “p-ERK1/2 level vs control” value (p-ERK1/2 in HT-29 cells) was “significantly reduced” and the “expression of p-AKT protein vs control” value (p-AKT in HT-29 cells) was “no significant reduction”.

For sargachromanol R, the “IC50 growth of HT-29 cells” value (HT-29 cells [1]) is listed as 3.4 µg/mL.

In the case of `COc1c(C)cc(O)cc1C/C=C(\C)CC(=O)/C=C(/C)CCCC(C)=O` [Compound 4, cystomexicone A], the IC50 [2, 7] is reported as 34.3 µg/mL (≈ 95.7 µM), the “Selectivity Index (SI)” value [2] is reported as 1.68 and the “IC50 HT-29” value [2, 7] is reported as 36.86 ± 2.86 µg/mL (≈ 103 µM). The IC50 [3] was 61.9 ± 2.37 µg/mL (≈ 173 µM), the “induction of apoptosis or death of HT-29 cells” value (HT-29 colon cancer cells [4]; 4 tested at 30-90 μg/mL, 7 at 10-30 μg/mL) was “did not induce neither apoptosis nor death” and the “accumulation of cells at the G2/M phase” value (HT-29 colon cancer cells [5]) was “significant”. The “inhibition of cell migration” value (HT-29 cells [6]; 30 μg/mL (methods, Figure 5B)) was “no significant effects”, the “phospho-JNK level vs control” value (p-JNK in HT-29 cells) was “decreased phosphorylation” and the “expression of p-AKT protein vs control” value (p-AKT in HT-29 cells) was “significantly downregulated”.

Source: article PMC7143549, “Anticancer Activities of Meroterpenoids Isolated from the Brown Alga Cystoseira usneoides against the Human Colon Cancer Cells HT-29” (Foods, 2020)
